Results as given in US10214527B2, “Triazolopyridine inhibitors of myeloperoxidase” (priority 2015, dated 2019).

Legend:
Assay type in all cases: biochemical
[1] = molecular target: T1, myeloperoxidase (MPO) (Homo sapiens (Human), UniProt P05164); experiment: MPO chlorination assay (APF assay); details: MPO chlorination, potency range class; read-out: APF Assay IC50 value
[2] = molecular target: T1, myeloperoxidase (MPO); experiment: MPO peroxidation assay (Amplex Red assay); details: MPO peroxidation, potency range class; read-out: Amplex Red Assay IC50 value
[3] = molecular target: eosinophil peroxidase (EPX) (Homo sapiens (Human), UniProt P11678); experiment: EPX bromination assay
Protocol: [formula] where A=minimal Y value (activity level of inhibited sample), B=maximal Y value (activity level of uninhibited sample), C=Log IC50, D=Hill Slope, x=concentration of inhibitor. EPX Bromination Assay
EPX bromination activity was measured in 100 mM KPi (pH 7.4) by monitoring the H2O2 catalyzed formation of 3-bromo tyrosine from tyrosine and potassium bromide. A 50 μl mixture of 0.6 μM EPX (Lee Biosolutions Cat#342-60) was added to 100 nL inhibitor in 100% DMSO in a 384 well REMP plate. Enzyme and compound were preincubated for ten minutes at room temperature.
After the ten minute preincubation of enzyme and inhibitor, 25 μL of a mixture containing 400 μM tyrosine and 1200 μM potassium bromide was added to the plate containing enzyme and inhibitor, followed by the addition of 25 μl of 20 μM H2O2. The reaction was allowed to proceed for 15 minutes, at which time it was quenched with 10 μL of 20% TCA. The final concentrations of all components were 0.3 μM EPX, 100 μM tyrosine, […], 5 μM H2O2, 0.1% DMSO, 2.0% TCA.
IC50 values were determined by determining the peak areas of 3-bromo-tyrosine present at the end of the 15 minute reaction and fitting the data to:
[formula] where A=minimal Y value (activity level of inhibited sample), B=maximal Y value (activity level of uninhibited sample), C=Log IC50, D=Hill Slope, x=concentration of inhibitor.
Reversed-phase analysis was performed on a Waters Acquity Ultra Performance LC system using an Acquity UPLC BEH C18 […], 2.1×50 mm analytical column. The column was maintained at 60° C. Samples were eluted using a gradient of 0%-100% B over 2.5 minutes, followed by equilibration with 100% A for 1 minute where A consisted of 0.1% TFA and B consisted of 90% MeOH/0.1% TFA at a flow rate of 0.6 ml/min. The retention time of 3-bromo tyrosine was 1.22 min.

T1 sequence (P05164 49-745): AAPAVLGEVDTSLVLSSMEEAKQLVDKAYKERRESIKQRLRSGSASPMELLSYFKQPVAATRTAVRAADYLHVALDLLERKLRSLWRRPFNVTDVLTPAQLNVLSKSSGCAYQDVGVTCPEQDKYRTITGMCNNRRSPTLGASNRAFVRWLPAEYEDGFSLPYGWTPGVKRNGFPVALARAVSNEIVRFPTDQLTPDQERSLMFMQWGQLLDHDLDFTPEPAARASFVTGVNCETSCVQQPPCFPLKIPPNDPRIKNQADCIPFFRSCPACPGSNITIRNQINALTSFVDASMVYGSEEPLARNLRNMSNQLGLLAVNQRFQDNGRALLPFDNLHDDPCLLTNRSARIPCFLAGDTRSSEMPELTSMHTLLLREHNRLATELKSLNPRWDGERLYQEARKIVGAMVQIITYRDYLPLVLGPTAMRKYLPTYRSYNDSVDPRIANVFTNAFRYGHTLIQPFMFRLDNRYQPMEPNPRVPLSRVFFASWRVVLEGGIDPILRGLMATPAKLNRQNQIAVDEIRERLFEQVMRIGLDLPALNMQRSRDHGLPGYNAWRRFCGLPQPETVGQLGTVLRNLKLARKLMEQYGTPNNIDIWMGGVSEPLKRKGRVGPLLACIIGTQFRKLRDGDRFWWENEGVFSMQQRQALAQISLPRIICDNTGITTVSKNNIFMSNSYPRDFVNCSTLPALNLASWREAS
Sequence of eosinophil peroxidase (EPX) (P11678 140-715): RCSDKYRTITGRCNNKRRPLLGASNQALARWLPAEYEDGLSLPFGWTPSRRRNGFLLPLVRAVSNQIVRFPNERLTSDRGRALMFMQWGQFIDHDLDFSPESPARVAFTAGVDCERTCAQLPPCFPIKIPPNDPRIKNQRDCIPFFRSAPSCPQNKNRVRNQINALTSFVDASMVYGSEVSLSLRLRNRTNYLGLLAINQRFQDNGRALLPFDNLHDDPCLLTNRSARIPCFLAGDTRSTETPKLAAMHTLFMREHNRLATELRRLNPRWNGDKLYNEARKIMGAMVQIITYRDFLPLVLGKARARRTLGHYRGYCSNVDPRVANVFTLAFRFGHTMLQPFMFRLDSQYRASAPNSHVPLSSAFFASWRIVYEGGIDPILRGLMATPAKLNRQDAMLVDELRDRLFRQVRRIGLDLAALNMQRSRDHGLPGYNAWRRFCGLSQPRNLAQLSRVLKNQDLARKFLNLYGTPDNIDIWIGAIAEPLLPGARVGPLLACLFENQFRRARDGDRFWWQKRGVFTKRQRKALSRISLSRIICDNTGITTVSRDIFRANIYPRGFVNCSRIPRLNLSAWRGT

Row | SMILES | IC50 [1] [µM] | IC50 [2] [µM] | IC50 [3] [µM]
1 | Nc1cc(Cc2ccc(F)cc2F)c2nn[nH]c2n1 [Example 43, 7-(2,4-difluorobenzyl)-3H-[1,2,3] triazolo[4,5-b]pyridin-5-amine] | 0.101 to 0.999 | 0.101 to 0.999 | 
2 | Nc1cc(Cc2ccc(-n3cccn3)cc2)c2nn[nH]c2n1 [Example 11, 7-(4-(1H-pyrazol-1-yl)benzyl)-3H-[1,2,3]triazolo [4,5-b]pyridin-5-amine] | 0.101 to 0.999 | 0.101 to 0.999 | 
3 | Nc1cc(Cc2cccnc2)c2nn[nH]c2n1 [Example 56, 7-(pyridin-3-ylmethyl)-3H-[1,2,3] triazolo[4,5-b]pyridin-5-amine] | 0.101 to 0.999 | 0.101 to 0.999 | 
4 | Nc1cc(Cc2cccc3c2ccn3Cc2cccc(OCc3ccccc3)c2)c2nn[nH]c2n1 [Example 63, 7-((1-(3-(Benzyloxy)benzyl)-1H-indol-4-yl)methyl)-3H-[1,2,3]triazolo[4,5-b]pyridin-5-amine] | 0.001 to 0.1 | 0.001 to 0.1 | 
5 | Nc1cc(Cc2cccc(-c3cccc(F)c3)c2)c2nn[nH]c2n1 [Example 14, 7-((3′-fluoro-[1,1′-biphenyl]-3-yl)methyl)-3H-[1,2,3]triazolo [4,5-b] pyridin-5-amine] | 0.001 to 0.1 | 0.101 to 0.999 | 
6 | Nc1cc(Cc2cccc3c2ccn3Cc2cccc(F)c2)c2nn[nH]c2n1 [Example 64, 7-((1-(3-Fluorobenzyl)-1H-indol-4-yl)methyl)-3H-[1,2,3]triazolo[4,5-b]pyridin-5-amine] | 0.101 to 0.999 | 0.001 to 0.1 | 0.019
7 | Nc1cc(Cc2cncc(Cl)c2)c2nn[nH]c2n1 [Example 57, 7-((5-chloropyridin-3-yl)methyl)-3H-[1,2,3]triazolo [4,5-b]pyridin-5-amine] |  | 0.001 to 0.1 | 0.052
8 | Nc1cc(Cc2cccc3c2ccn3Cc2cccc(Cc3ccccc3)c2)c2nn[nH]c2n1 [Example 62, 7-((1-(3-Benzylbenzyl)-1H-indol-4-yl)methyl)-3H-[1,2,3]triazolo[4,5-b]pyridin-5-amine] | 0.001 to 0.1 | 0.001 to 0.1 | 
9 | Nc1cc(Cc2ccc(Oc3ccccc3)nc2)c2nn[nH]c2n1 [Example 58, 7-((6-phenoxypyridin-3-yl)methyl)-3H-[1,2,3]triazolo [4,5-b]pyridin-5-amine] | 0.101 to 0.999 | 1 to 10 | 
10 | COC(=O)c1cc(Cc2cc(N)nc3[nH]nnc23)ccc1F [Example 50, methyl 5-((5-amino-3H-[1,2,3]triazolo [4,5-b]pyridin-7-yl)methyl)-2-fluorobenzoate] | 0.101 to 0.999 | 0.101 to 0.999 | 
11 | Nc1cc(Cc2ccc(F)cc2)c2nn[nH]c2n1 [Example 28, 7-(4-fluorobenzyl)-3H-[1,2,3]triazolo [4,5-b]pyridin-5-amine] | 0.101 to 0.999 | 0.101 to 0.999 | 
12 | Nc1cc(Cc2cccc(Cc3ccccc3)c2)c2nn[nH]c2n1 [Example 16, 7-(3-benzylbenzyl)-3H-[1,2,3]triazolo [4,5-b]pyridin-5-amine] | 0.001 to 0.1 | 0.001 to 0.1 | 
13 | Nc1cc(Cc2cccc(C(=O)NCCc3ccccc3)c2)c2nn[nH]c2n1 [Example 47, 3-((5-Amino-3H-[1,2,3]triazolo[4,5-b]pyridin-7-yl)methyl)-N-phenethylbenzamide] | 0.101 to 0.999 | 0.101 to 0.999 | 
14 | Nc1cc(Cc2cccc3c2cnn3Cc2ccccc2)c2nn[nH]c2n1 [Example 65, 7-((1-Benzyl-1H-indazol-4-yl)methyl)-3H-[1,2,3]triazolo[4,5-b]pyridin-5-amine] | 0.001 to 0.1 | 0.001 to 0.1 | 
15 | Cc1cc(C)cc(Cc2cc(N)nc3[nH]nnc23)c1 [Example 31, 7-(3,5-dimethylbenzyl)-3H-[1,2,3] triazolo[4,5-b]pyridin-5-amine] | 0.101 to 0.999 | 0.001 to 0.1 | 0.034
16 | Nc1cc(Cc2cccc3nn(Cc4ccccc4)cc23)c2nn[nH]c2n1 [Example 66, 7-((2-Benzyl-2H-indazol-4-yl)methyl)-3H-[1,2,3]triazolo[4,5-b]pyridin-5-amine] | 0.101 to 0.999 | 0.101 to 0.999 | 
17 | Nc1cc(Cc2cccc(OC(F)(F)F)c2)c2nn[nH]c2n1 [Example 29, 7-(3-(trifluorometh-oxy)benzyl)-3H-[1,2,3]triazolo [4,5-b]pyridin-5-amine] | 0.101 to 0.999 | 0.101 to 0.999 | 
18 | Nc1cc(Cc2cc(Cl)ccc2F)c2nn[nH]c2n1 [Example 21, 7-(5-chloro-2-fluorobenzyl)-3H-[1,2,3] triazolo[4,5-b]pyridin-5-amine] | 0.001 to 0.1 | 0.001 to 0.1 | 
